Reference: US7078522B2, “Pyridopyrimidine or naphthyridine derivative” (Tanabe Seiyaku Co., Ltd., priority 2001, dated 2006)

Row | Compound | melting point [°C]
1 | CNC(=O)c1cc2cnc(N3CCC[C@H]3CO)nc2n(Cc2ccc(OC)c(Cl)c2)c1=O | 191 to 191.5
2 | COc1ccc(Cn2c(=O)c(C(=O)NCc3ncccn3)cc3cnc(N4CCC[C@H]4CO)nc32)cc1Cl | 216 to 218
3 | COc1ccc(Cn2c(=O)c(C(=O)NCCO)cc3cnc(N4CCC[C@H]4CO)nc32)cc1Cl | 207 to 210
4 | COc1ccc(Cn2c(=O)ccc3cnc(N4CCC[C@H]4CO)nc32)cc1Cl [Example 1, (S)-2-(2-Hydroxymethyl-1-pyrrolidinyl)-8-(3-chloro-4-methoxybenzyl)-7,8-dihydro-7-oxo-pyrido[2,3-d]pyrimidine] | 142 to 143
5 | COc1ccc(Cn2c(=O)ccc3cnc(OCc4ccccn4)nc32)cc1Cl [Example 2, 2-(2-Pyridylmethoxy)-8-(3-chloro-4-methoxybenzyl)-7,8-dihyro-7-oxo-pyrido[2,3-d]pyrimidine] | 130 to 131
6 | Cn1c(=O)ccc2cnc(N3CCC[C@H]3CO)nc21 [Example 3, (S)-2-(2-Hydroxymethyl-1-pyrrolidinyl)-8-N-mehyl-7,8-dihydro-7-oxo-pyrido[2,3-d]pyrimidine] | 143 to 144
7 | COc1ccc(Cn2c(=O)ccc3ccc(N4CCC[C@H]4CO)nc32)cc1Cl [Example 10, (S)-2-(2-Hydroxymethyl-1-pyrrolidinyl)-8-(3-chloro-4-methoxybenzyl)-7,8-dihydro-7-oxo-1,8-naphthyridine] | 131 to 134
8 | COc1ccc(Cn2c(=O)cc(-c3ccccn3)c3cnc(N4CCC[C@H]4CO)nc32)cc1Cl [Example 12, (S)-2-(2-Hydroxymethyl-1-pyrrolidinyl)-5-(2-pyridyl)-8-(3-chloro-4-methoxybenzyl)-7,8-dihydro-7-oxo-pyrido[2,3-d]pyrimidine] | 183.5 to 186.5
9 | COC(=O)c1c(-c2nccn2C)c2cnc(N3CCC[C@H]3CO)nc2n(Cc2ccc(OC)c(Cl)c2)c1=O [Example 13, (S)-2-(2-Hydroxymethyl-1-pyrrolidinyl)-5-(1-methyl-2-imidazolyl)-6-methoxycarbonyl-8-(3-chloro-4-methoxybenzyl)-7,8-dihydro-7-oxo-pyrido[2,3-d]pyrimidine] | 142 to 145
10 | O=c1ccc2cnc(N3CCC[C@H]3CO)nc2[nH]1 [Example 15] | 99 to 103
11 | COc1ccc(Cn2c(=O)ccc3cnc(N4CCC[C@H]4CO)nc32)cc1 [Example 16] | 135 to 136
12 | COc1ccc(Cn2c(=O)ccc3cnc(N4CCC[C@H]4CO)nc32)cc1OC [Example 17] | 132
13 | O=c1ccc2cnc(N3CCC[C@H]3CO)nc2n1Cc1ccc2c(c1)OCO2 [Example 18] | 154 to 155
14 | O=c1ccc2cnc(N3CCC[C@H]3CO)nc2n1Cc1ncccn1 [Example 19] | 150 to 151
15 | O=c1ccc2cnc(N3CCC[C@H]3CO)nc2n1Cc1ccncc1 [Example 20] | 143 to 144
16 | CN(C)CCn1c(=O)ccc2cnc(N3CCC[C@H]3CO)nc21 [Example 21] | 102 to 104
17 | COC(=O)c1cc2cnc(N3CCCCC3)nc2n(Cc2ccc(OC)c(Cl)c2)c1=O [Example 22] | 201 to 203
18 | COc1ccc(Cn2c(=O)ccc3cnc(N4CCc5ccccc5C4)nc32)cc1Cl [Example 23] | 167 to 168
19 | COc1ccc(Cn2c(=O)ccc3cnc(SC)nc32)cc1Cl [Example 24] | 189 to 190
20 | COc1ccc(Cn2c(=O)ccc3cnc(NCc4ncccn4)nc32)cc1Cl [Example 25] | 172 to 173
21 | COc1ccc(Cn2c(=O)ccc3cnc(N4CCC[C@@H]4CO)nc32)cc1Cl [Example 26] | 139 to 141
22 | COc1ccc(Cn2c(=O)ccc3cnc(N4CCOC(CO)C4)nc32)cc1Cl (stereo not shown) [Example 27] | 207 to 209
23 | COc1ccc(Cn2c(=O)ccc3cnc(N4CCNCC4)nc32)cc1Cl [Example 28] | 169.5 to 170
24 | COc1ccc(Cn2c(=O)ccc3cnc(N4CCc5cncnc5C4)nc32)cc1Cl [Example 29] | 200 to 201
25 | COc1ccc(Cn2c(=O)ccc3cnc(N)nc32)cc1Cl [Example 31] | 234 to 242
26 | COc1ccc(Cn2c(=O)ccc3cnc(N4CCn5ccnc5C4)nc32)cc1Cl [Example 32] | 158 to 159
27 | COc1ccc(Cn2c(=O)c(C(=O)O)cc3cnc(N4CCC[C@H]4CO)nc32)cc1Cl [Example 33] | 258 to 264
28 | COC(=O)c1cc2cnc(N3CCC[C@H]3CO)nc2n(Cc2ccccn2)c1=O [Example 42] | 199 to 201
